Experimental data as given in patent US7989464B2, “mGluR1 antagonists as therapeutic agents” (Schering Corporation, priority 2004, dated 2011).

What follows are compounds tested against T1, hmGluR1 receptor (Homo sapiens, UniProt Q13255) (assay: IC50 determination: intracellular calcium mobilization (FLIPR) upon Quisqualate stimulation in CHO cells stably expressing hmGluR1). Details: against Quisqualate 1 μM (EC80), FLIPR calcium mobilization, read-out: IC50 Class.
T1 construct: expressed in transfected cells
Format: cell-based
Method in brief: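 CHO cells stably expressing hmGluR1 were kept overnight in DMEM high glucose with GPT and 1 mM pyruvate, then loaded 2 h with Calcium 3 dye.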

T1 sequence (Q13255 19-1194): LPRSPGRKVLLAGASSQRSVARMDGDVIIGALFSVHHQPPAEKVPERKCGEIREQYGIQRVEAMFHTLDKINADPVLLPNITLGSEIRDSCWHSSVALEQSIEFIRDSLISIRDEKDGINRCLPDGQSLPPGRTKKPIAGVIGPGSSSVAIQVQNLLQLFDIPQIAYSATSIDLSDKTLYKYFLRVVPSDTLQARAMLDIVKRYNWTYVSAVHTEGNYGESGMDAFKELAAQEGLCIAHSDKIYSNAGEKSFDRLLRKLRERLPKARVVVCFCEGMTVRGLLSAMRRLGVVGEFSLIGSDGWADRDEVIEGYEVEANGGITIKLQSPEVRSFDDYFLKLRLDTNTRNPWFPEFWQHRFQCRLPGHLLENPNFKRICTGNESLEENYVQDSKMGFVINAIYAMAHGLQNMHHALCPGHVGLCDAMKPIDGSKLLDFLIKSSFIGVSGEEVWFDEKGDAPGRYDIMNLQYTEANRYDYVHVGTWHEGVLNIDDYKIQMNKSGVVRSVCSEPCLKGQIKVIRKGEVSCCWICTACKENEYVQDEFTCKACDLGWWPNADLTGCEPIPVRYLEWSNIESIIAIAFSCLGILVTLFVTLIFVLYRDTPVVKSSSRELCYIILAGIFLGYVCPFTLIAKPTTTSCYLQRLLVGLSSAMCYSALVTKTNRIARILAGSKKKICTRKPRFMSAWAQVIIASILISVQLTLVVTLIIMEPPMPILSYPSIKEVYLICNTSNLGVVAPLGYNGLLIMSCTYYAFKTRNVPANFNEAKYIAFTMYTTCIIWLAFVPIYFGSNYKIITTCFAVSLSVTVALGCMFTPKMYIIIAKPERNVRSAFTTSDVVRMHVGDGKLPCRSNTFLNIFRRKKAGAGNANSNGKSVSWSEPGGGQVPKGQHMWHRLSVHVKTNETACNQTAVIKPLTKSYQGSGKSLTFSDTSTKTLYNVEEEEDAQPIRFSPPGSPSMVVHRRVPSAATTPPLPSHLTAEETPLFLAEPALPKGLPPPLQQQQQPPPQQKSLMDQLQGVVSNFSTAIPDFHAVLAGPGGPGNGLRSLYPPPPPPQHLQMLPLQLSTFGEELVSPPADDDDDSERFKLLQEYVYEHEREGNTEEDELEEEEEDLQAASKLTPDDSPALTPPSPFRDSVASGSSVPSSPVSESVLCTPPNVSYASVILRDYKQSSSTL

IC50, 0.15 to 1 µM:
COc1cc(-n2cnc3c(sc4nccc(NC5CC5)c43)c2=O)ccc1F [131N]
O=c1c2sc3nccc(NC4CC4)c3c2ncn1-c1ccc(C2CC2)cc1 [137I]

IC50, 0.05 to 0.15 µM:
COc1ccc(-n2cnc3c(sc4nccc(NC5CC5)c43)c2=O)c(F)c1 [131H]
COc1ccc(-n2cnc3c(sc4nccc(NC5CC5)c43)c2=O)c(C)c1 [131I]
Cc1ccc(-n2cnc3c(sc4nccc(NC5CC5)c43)c2=O)c(F)c1 [131M]
O=c1c2sc3ncnc(NC4CC4)c3c2ncn1-c1ccc(C2CC2)cc1 [137C]
CN(C)c1ccnc2sc3c(=O)n(-c4ccc(C5CC5)cc4F)cnc3c12 [137F]

IC50, > 1 µM:
COc1ccc(-n2cnc3c(sc4nccc(NC5CC5)c43)c2=O)cc1Cl [131K]
COc1ccnc2sc3c(=O)n(-c4ccc(C5CC5)cc4)cnc3c12 [137H]

IC50, < 0.05 µM:
O=c1c2sc3nccc(NC4CC4)c3c2ncn1-c1ccc2scnc2c1 [131J]
Cc1ccc(-n2cnc3c(sc4nccc(NC5CC5)c43)c2=O)cc1F [131L]
CN(C)c1ncnc2sc3c(=O)n(-c4ccc(C5CC5)cc4)cnc3c12 [137D]
CNc1c(C2CC2)cnc2sc3c(=O)n(-c4ccc(OC)cc4)cnc3c12 [137E]
CN(C)c1ccnc2sc3c(=O)n(-c4ccc(C5CC5)c(F)c4)cnc3c12 [137G]

Same assay, conditions: against Quisqualate 1 μM (EC80), class symbols, read-out: mGIuR 1 IC50

IC50, 0.15 to 1 µM:
CCCc1nc2c(sc3nccc(N(C)C)c32)c(=O)n1-c1ccc(OC)cc1 [116F]
CCCCc1nc2c(sc3nccc(N(C)C)c32)c(=O)n1-c1ccc(OC)cc1 [116G]
Cc1ccc(-n2c(C(F)(F)F)nc3c(sc4nccc(N(C)C)c43)c2=O)cc1 [117A]
COc1ccc(-n2c(C(F)(F)F)nc3c(sc4nccc(N(C)C)c43)c2=O)cc1 [117B]
Cc1ccc(-n2cnc3c4c(N(C)C)ccnc4n(C)c3c2=O)cc1 [134A]
COc1ccc(-n2cnc3c4c(N(C)C)ccnc4n(C)c3c2=O)cc1 [134B]
CN(C)c1ccnc2c1c1ncn(-c3ccc(Cl)cc3)c(=O)c1n2C [134F]

IC50, > 1 µM:
CSc1ccc(-n2cnc3c4c(N(C)C)ccnc4n(C)c3c2=O)cc1 [134C]
CN(C)c1ccnc2c1c1ncn(-c3ccc(OC(F)F)cc3)c(=O)c1n2C [134D]
CN(C)c1ccnc2c1c1ncn(-c3ccc4ncsc4c3)c(=O)c1n2C [134E]
CN(C)c1ccnc2c1c1ncn(C3CCCCC3)c(=O)c1n2C [134G]
COc1ccc(Cn2c3nccc(N(C)C)c3c3ncn(-c4ccc(C)cc4)c(=O)c32)cc1 [134H]
CNc1ccnc2c1c1ncn(-c3ccc(C)cc3)c(=O)c1n2Cc1ccc(OC)cc1 [134I]
Cc1ccc(-n2cnc3c([nH]c4nccc(N(C)C)c43)c2=O)cc1 [135A]

IC50, 0.05 to 0.15 µM:
CCc1nc2c(sc3nccc(N(C)C)c32)c(=O)n1-c1ccc(OC)cc1 [116E]
CCNc1ccnc2sc3c(=O)n(-c4ccc(CC)cc4)cnc3c12 [131F]
CCOC(=O)c1cnc2sc3c(=O)n(-c4ccc(C)cc4)cnc3c2c1 [144A]

IC50, < 0.05 µM:
CCNc1ccnc2sc3c(=O)n(-c4ccc(OC)cc4)cnc3c12 [131A]
CCNc1ccnc2sc3c(=O)n(-c4ccc(O)cc4)cnc3c12 [131B]
CCNc1ccnc2sc3c(=O)n(-c4ccc5ncsc5c4)cnc3c12 [131C]
CCNc1ccnc2sc3c(=O)n(-c4ccc(C)cc4)cnc3c12 [131D]
CCNc1ccnc2sc3c(=O)n(-c4ccc5c(c4)OCO5)cnc3c12 [131E]
CCNc1ccnc2sc3c(=O)n(-c4ccc(S)c(NC=O)c4)cnc3c12 [131G]
CN(C)c1ccnc2sc3c(=O)n(-c4ccc(C5CC5)cc4)cnc3c12 [137A]
CN(C)c1ccnc2sc3c(=O)n(-c4cccc(C5CC5)c4)cnc3c12 [137B]
